Values of other authors, collected in PMC7797289 (Drug Design, Development and Therapy, 2021).

How the values were obtained:
[1] = system: breast cancer metastasis; conditions: in vivo test
[2] = target: uPA; conditions: read-out: Ki (inhibitory constant); uPA inhibitor
[3] = system: lung cancer; conditions: lung cancer animal model

## CCCNC(=O)[C@H]1O[C@@H]1C(=O)N[C@H](C(=O)N1CCC[C@H]1C(=O)O)[C@@H](C)CC [CA-074]
[1]
  breast cancer metastasis: reduced breast cancer metastasis

## CN(C)C(=O)[C@H](Cc1ccccc1)NC(=O)[C@H]1O[C@@H]1C(=O)NCCc1ccccn1 [CLIK-148]
[1]
  breast cancer metastasis: reduced breast cancer metastasis

## N=C(N)c1ccc(CNC(=O)[C@H](CO)NC(=O)[C@@H](CO)NS(=O)(=O)Cc2ccccc2)cc1 [CJ-463, benzylsulfonyl-D-Ser-Ser-4- amidinobenzylamide]
[2]
  Ki: 20 nM
[3]
  anti-tumor efficacy: good anti-tumor efficacy
